# Patent publication US20120015961A1, “ISOTHIOUREA DERIVATIVES OR ISOUREA DERIVATIVES HAVING BACE1 INHIBITORY ACTIVITY” (SHIONOGI & CO., LTD., priority 2009, published 2012)
# pIC50: −log10 of the molar value.
# Legend:
# [1] = biological target: T1, Recombinant human BACE1 (Homo sapiens, UniProt P56817); test: Assay of BACE1 inhibiting activity; assay type: biochemical; conditions: 50% inhibitory concentration against enzymatic activity, pH 5.0, 30° C., 3 hours
# T1 construct: purchased R&D Systems
# T1 sequence (P56817 46-501): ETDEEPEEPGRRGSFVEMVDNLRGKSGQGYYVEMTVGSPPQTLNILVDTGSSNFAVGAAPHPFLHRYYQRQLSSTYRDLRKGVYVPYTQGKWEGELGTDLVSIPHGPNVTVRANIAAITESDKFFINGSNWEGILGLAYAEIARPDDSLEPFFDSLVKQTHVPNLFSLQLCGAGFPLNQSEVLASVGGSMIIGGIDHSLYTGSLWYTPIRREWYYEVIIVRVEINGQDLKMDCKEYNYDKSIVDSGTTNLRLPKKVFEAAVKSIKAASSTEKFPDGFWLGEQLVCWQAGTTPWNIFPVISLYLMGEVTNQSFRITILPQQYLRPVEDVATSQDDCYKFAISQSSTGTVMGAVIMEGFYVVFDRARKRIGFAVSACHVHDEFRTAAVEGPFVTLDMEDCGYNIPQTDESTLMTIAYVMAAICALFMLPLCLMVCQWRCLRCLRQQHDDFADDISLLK
# Description: 48.5 μL of substrate peptide solution (Biotin-XSEVNLDAEFRHDSGC-Eu: Xεε-amino-n-capronic acid, Eu=Europium cryptate) was added to each well of 96-hole half-area plate (a black plate: Costar Corporation), and after addition of 0.5 μl of the test compound (dissolved in […]) and 1 μl of Recombinant human BACE1 (R&D Systems), the reaction mixture was incubated at 30° C. for 3 hours. The substrate peptide was synthesized by reacting Cryptate TBPCOOH mono SMP (CIS bio international) with Biotin-XSEVNLDAEFRHDSGC (Peptide Institute, Inc.). The final concentrations of the substrate peptide and Recombinant human BACE1 were adjusted to 18 nM and 7.4 nM respectively, and the reaction was performed in sodium acetate buffer (50 mM sodium acetate, pH 5.0, 0.008% Triton X-100). After the completion of reaction, 50 μl of 8.0 μg/ml Streptavidin-XL665 (CIS bio international) dissolved in phosphate buffer (150 mM K2HPO4—KH2PO4, pH 7.0, 0.008% Triton X-100, 0.8 M KF) was added to each well and left stand at 30° C. for an hour. Then, fluorescence intensity was measured (excitation wavelength: 320 nm, measuring wavelength: 620 nm and 665 nm) using Wallac 1420 multilabel counter (Perkin Elmer life sciences). Enzymatic activity was determined from counting ratio of each wavelength (10,000×Count 665/Count 620) and 50% inhibitory concentration against the enzymatic activity was calculated.
# [2] = system: Neuroblastoma SH-SY5Y cells (SH/APPwt) with human wild-type β-APP excessively expressed; test: Measurement of β-amyloid (Aβ) production inhibitory effect in cell; assay type: cell-based; conditions: amount needed to inhibit Aβ production by 50%, 24 hours incubation, Amyloid β1-40 HTRF
# Description: Neuroblastoma SH-SY5Y cells (SH/APPwt) with human wild-type β-APP excessively expressed therein were prepared at 8×10^5 cells/mL, and 150 μl portions thereof were inoculated into each well of a 96-well culture plate (Falcon). The cells were cultured for 2 hours at 37° C. in a 5% gaseous carbon dioxide incubator. Then, a solution which had been preliminarily prepared by adding and suspending the test compound (DMSO (dimethyl sulfoxide) solution) so as to be 2 μl/50 μl medium was added to the cell sap. Namely, the final DMSO concentration was 1%, and the amount of the cell culture was 200 μl. After the incubation was performed for 24 hours from the addition of the test compound, 100 μl of the culture supernatant was collected from each fraction. The amount of the Aβ in each fraction was measured.
# The […] was measured as follows. 10 μl of a homogeneous time resolved fluorescence (HTRF) measurement reagent (Amyloid β1-40 peptide; IBA Molecular Holding, S.A.) and 10 μl of the culture supernatant were put into a 384-well half area microplate (black microplate, Costar) and mixed with each other, and then left standing overnight at 4° C. while the light was shielded. Then, the fluorescence intensity (excitation wavelength: 337 nm, measurement wavelength: 620 nm and 665 nm) was measured with a Wallac 1420 multilabel counter (Perkin Elmer life sciences). The Aβ amount was determined from the count rate at each measurement wavelength (10000×Count 665/Count 620), and the amount needed to inhibit Aβ production by 50% (IC50) was calculated from at least six different dosages.
SMILES,pIC50 [1],"pIC50 ([2]; Homo sapiens, SH-SY5Y, 24 h)",pIC50 [2]
"CO/C(N)=N/C(C)(c1ccc(F)cc1)c1cccc(NC(=O)c2ccc(C#N)cn2)c1 (single isomer, unassigned) [Compound 101]",≥ 6.00,≥ 6.00,
CC#CCOc1cnc(C(=O)Nc2cccc(C/N=C(/N)SCc3cccnc3)c2)cn1 [Compound 10],≥ 6.00,≥ 6.00,
CC#CCOc1cnc(C(=O)Nc2cccc(C3(/N=C(/N)SC)CC3)c2)cn1 [Compound 14],≥ 6.00,≥ 6.00,
CC#CCOc1cnc(C(=O)Nc2ccc(F)c(C/N=C(/N)SC)c2)cn1 [Compound 16],≥ 6.00,≥ 6.00,
CC#CCOc1cnc(C(=O)Nc2cccc(C/N=C(/N)SCCCO)c2)cn1 [Compound 17],≥ 6.00,≥ 6.00,
CC#CCOc1cnc(C(=O)Nc2cccc(C(/N=C(/N)SC)c3ccc(OC)cc3)c2)cn1 (centres unmarked) [Compound 21],≥ 6.00,≥ 6.00,
COc1ccc(C(/N=C(/N)SC)c2cccc(NC(=O)c3ncc(Cl)cc3Cl)c2)cc1 (centres unmarked) [Compound 22],,≥ 6.00,
COc1ccc(C(/N=C(/N)SC)c2cccc(NC(=O)c3ccc(C#N)cn3)c2)cc1 (centres unmarked) [Compound 23],,≥ 6.00,
COc1ccc(C(/N=C(/N)SC)c2cccc(NC(=O)c3cnc(OC)cn3)c2)cc1 (centres unmarked) [Compound 24],,≥ 6.00,
COc1cnc(C(=O)Nc2ccc(F)c(C(C)/N=C(/N)SC)c2)cn1 (centres unmarked) [Compound 26],,≥ 6.00,
CS/C(N)=N\C(C)c1cc(NC(=O)c2ccc(C#N)cn2)ccc1F (centres unmarked) [Compound 27],,≥ 6.00,
CO/C(N)=N/Cc1cccc(NC(=O)c2ccc(C#N)cn2)c1 [Compound 33],,≥ 6.00,
CCCO/C(N)=N\Cc1cccc(NC(=O)c2ccc(C#N)cn2)c1 [Compound 34],,≥ 6.00,
COCCO/C(N)=N\Cc1cccc(NC(=O)c2ccc(C#N)cn2)c1 [Compound 35],,≥ 6.00,
COCCCO/C(N)=N/Cc1cccc(NC(=O)c2ccc(C#N)cn2)c1 [Compound 37],,≥ 6.00,
CO/C(N)=N\Cc1cc(NC(=O)c2ccc(C#N)cn2)ccc1F [Compound 42],,≥ 6.00,
CO/C(N)=N\Cc1cc(NC(=O)c2cnc(OC)cn2)ccc1F [Compound 43],,≥ 6.00,
CO/C(N)=N\C1(c2cc(NC(=O)c3ccc(C#N)cn3)ccc2F)CC1 [Compound 46],,≥ 6.00,
CO/C(N)=N\C1(c2cc(NC(=O)c3cnc(OC)cn3)ccc2F)CC1 [Compound 47],,≥ 6.00,
CO/C(N)=N/C(c1cccc(F)c1)c1cccc(NC(=O)c2ccc(C#N)cn2)c1 (centres unmarked) [Compound 51],≥ 6.00,≥ 6.00,
CO/C(N)=N\[C@H](c1ccc(F)cc1)c1cccc(NC(=O)c2ccc(C#N)cn2)c1 [Compound 52],≥ 6.00,≥ 6.00,
CO/C(N)=N/C(c1cccc(NC(=O)c2ccc(C#N)cn2)c1)c1cccc(OC)c1 (centres unmarked) [Compound 53],≥ 6.00,≥ 6.00,
CO/C(N)=N\C(c1cccc(NC(=O)c2ccc(C#N)cn2)c1)c1ccc2c(c1)CCO2 (centres unmarked) [Compound 54],≥ 6.00,≥ 6.00,
CO/C(N)=N\C(c1cccc(NC(=O)c2ccc(C#N)cn2)c1)c1ccc(OC)c(F)c1 (centres unmarked) [Compound 55],≥ 6.00,≥ 6.00,

SMILES,pIC50 [1],"pIC50 ([2]; Homo sapiens, SH-SY5Y, 24 h)",pIC50 [2]
CO/C(N)=N\C(c1ccc(OC)cc1)c1cccc(NC(=O)c2ccc(C#N)cn2)c1 (centres unmarked) [Compound 57],≥ 6.00,≥ 6.00,
CO/C(N)=N\C(c1ccc(OC)cc1)c1cccc(NC(=O)c2cnc(OC)cn2)c1 (centres unmarked) [Compound 58],≥ 6.00,7.74,
CC#CCOc1cnc(C(=O)Nc2cccc(C(C)(C)/N=C(/N)SC)c2)cn1 [Compound 64],,≥ 6.00,
CC#CCOc1cnc(C(=O)Nc2ccc(Oc3ccccc3)c(C/N=C(/N)SC)c2)cn1 [Compound 68],≥ 6.00,≥ 6.00,
CC#CCOc1cnc(C(=O)Nc2ccc(Oc3cccc(OC)c3)c(C/N=C(/N)SC)c2)cn1 [Compound 70],≥ 6.00,≥ 6.00,
CO/C(N)=N\c1cccc2ccc(NC(=O)c3ccc(C#N)cn3)cc12 [Compound 75],≥ 6.00,≥ 6.00,
CS/C(N)=N\c1c(C)ccc2ccc(NC(=O)c3ccc(C#N)cn3)cc12 [Compound 79],≥ 6.00,≥ 6.00,
CO/C(N)=N/C(C)c1cccc(NC(=O)c2ccc(C#N)cn2)c1 (centres unmarked) [Compound 82],,≥ 6.00,
CO/C(N)=N/C(C)c1cccc(NC(=O)c2cnc(OC)cn2)c1 (centres unmarked) [Compound 83],,≥ 6.00,
CO/C(N)=N/C(C)c1cc(NC(=O)c2ccc(C#N)cn2)ccc1F (centres unmarked) [Compound 84],,≥ 6.00,
CO/C(N)=N/C(C)c1cc(NC(=O)c2cnc(OC)cn2)ccc1F (centres unmarked) [Compound 85],,≥ 6.00,
CO/C(N)=N/C(C)(c1ccc(F)cc1)c1cccc(NC(=O)c2ccc(C#N)cn2)c1 (centres unmarked) [Compound 88],≥ 6.00,,7.62
CO/C(N)=N\C(c1ccc(Cl)cc1)c1cccc(NC(=O)c2cnc(C)cn2)c1 (centres unmarked) [Compound 90],,≥ 6.00,
CO/C(N)=N\C(c1ccc(Cl)cc1)c1cccc(NC(=O)c2ccc(C#N)cn2)c1 (centres unmarked) [Compound 91],≥ 6.00,≥ 6.00,
CO/C(N)=N\C(c1ccc(Cl)cc1)c1cccc(NC(=O)c2cnc(OC)cn2)c1 (centres unmarked) [Compound 92],≥ 6.00,≥ 6.00,
CO/C(N)=N\C(c1ccc(Cl)cc1)c1cccc(NC(=O)c2ccc(Cl)cn2)c1 (centres unmarked) [Compound 93],≥ 6.00,≥ 6.00,
CC#CCOc1cnc(C(=O)Nc2cccc(C(/N=C(/N)OC)c3ccc(Cl)cc3)c2)cn1 (centres unmarked) [Compound 94],7.49,≥ 6.00,
COC(=N)NC(c1ccc(OC(C)C)cc1)c1cccc(NC(=O)c2ccc(C#N)cn2)c1 (centres unmarked) [Compound 95],≥ 6.00,≥ 6.00,
COC(=N)NC(c1ccc(OCc2ccccc2)cc1)c1cccc(NC(=O)c2ccc(C#N)cn2)c1 (centres unmarked) [Compound 96],≥ 6.00,≥ 6.00,
[2H]C([2H])([2H])Oc1cnc(C(=O)Nc2cccc(C3(/N=C(/N)OC)CC3)c2)cn1 [Compound 97],≥ 6.00,≥ 6.00,
CO/C(N)=N/C(C)(c1ccc(OC)cc1)c1cccc(NC(=O)c2ccc(C#N)cn2)c1 (centres unmarked) [Compound 98],≥ 6.00,≥ 6.00,
CO/C(N)=N\C(c1cccc(NC(=O)c2ccc(C#N)cn2)c1)C(F)(F)F (centres unmarked) [Compound 99],,≥ 6.00,
[2H]C([2H])([2H])Oc1ccc(C(NC(=N)OC)c2cccc(NC(=O)c3ccc(C#N)cn3)c2)cc1 (centres unmarked) [Compound 102],≥ 6.00,≥ 6.00,
